Columns and labels:
MDA-MB-231 = test: Cancer cell proliferation GI50 (CCK-8); type: cell-based; details: Homo sapiens, MDA-MB-231, breast cancer, 72 hours
Procedure: (§1) The proliferation effect of SY-1365, which is known to have a proliferation inhibitory effect on various carcinoma cells, and the compound of the present invention on various cancer cells was measured and compared as GI50 (half maximal growth inhibitory concentration, the concentration at which cell proliferation is reduced by half).
(§2) Various carcinoma cells were cultured at 37° C. in a humidified condition in the presence of 5% CO2. Each cell cultured in a 96-well cell culture plate was treated with the compound of the present invention and cultured for 72 hours.
(§3) In this example, in order to confirm the proliferation inhibitory effect on various cancer cells, Compound 121 was tested as follows.
(§4) The cells were cultured with a culture medium shown in Table 9 below at 37° C. in a humidified condition in the presence of 5% CO2. Each cell cultured in a 96-well cell culture plate was treated with the compound of the present invention and cultured for 72 hours.

Hep3B = test: Cancer cell proliferation GI50 (CCK-8); type: cell-based; details: Homo sapiens, liver cancer, 72 hours
Procedure: as §1, §2, §3, §4

MDA-MB-468 = test: Cancer cell proliferation GI50 (CCK-8); type: cell-based; details: Homo sapiens, MDA-MB-468, breast cancer, 72 hours
Procedure: as §1, §2, §3, §4

Huh7 = test: Cancer cell proliferation GI50 (CCK-8); type: cell-based; details: Homo sapiens, Huh7 (Huh-7), liver cancer, 72 hours
Procedure: as §1, §2, §3, §4

MDA-MB-468 cells = test: MDA-MB-468 cell proliferation inhibition (MTT); type: cell-based; details: MDA-MB-468 proliferation
Procedure: MDA-MB-468 cells are one of the triple-negative breast cancer (TNBC: negative for the expression of estrogen receptor, progesterone receptor and HER2) cells known as a malignant tumor that is difficult to diagnose at an early stage and has a high metastatic capacity, and these cells are used to test inhibition of proliferation and survival of breast cancer cells.
MDA-MB-468 cells cultured in a 96-well cell culture plate were treated with the compound of the present invention and cultured for 72 hours. Thereafter, the antiproliferative effect of the compound was assayed by the MTT method using a tetrazolium salt.

HepG2 = test: Cancer cell proliferation GI50 (CCK-8); type: cell-based, human; details: Homo sapiens, HepG2, liver cancer, 72 hours
Procedure: as §1, §2, §3, §4

BDCM = test: Cancer cell proliferation GI50 (CCK-8); type: cell-based; details: acute myeloid leukemia, 72 hours
Procedure: as §3, §4

LNCaP = test: Cancer cell proliferation GI50 (CCK-8); type: cell-based; details: Homo sapiens, prostate cancer, 72 hours
Procedure: as §3, §4

HCC1937 = test: Cancer cell proliferation GI50 (CCK-8); type: cell-based; details: Homo sapiens, HCC1937, breast cancer, 72 hours
Procedure: as §3, §4

THP-1 = test: Cancer cell proliferation GI50 (CCK-8); type: cell-based; details: Homo sapiens, THP-1, acute myeloid leukemia, 72 hours
Procedure: as §3, §4

CCRF-CEM = test: Cancer cell proliferation GI50 (CCK-8); type: cell-based; details: Homo sapiens, acute lymphocytic leukemia, 72 hours
Procedure: as §3, §4

DAUDI = test: Cancer cell proliferation GI50 (CCK-8); type: cell-based; details: Homo sapiens, Burkitt lymphoma, 72 hours
Procedure: as §3, §4

NB4 = test: Cancer cell proliferation GI50 (CCK-8); type: cell-based; details: Homo sapiens, NB-4, NB4, acute promyelocytic leukemia, 72 hours
Procedure: as §3, §4

SKM-1 = test: Cancer cell proliferation GI50 (CCK-8); type: cell-based; details: Homo sapiens, SKM-1, acute myeloid leukemia, 72 hours
Procedure: as §3, §4

A549 = test: Cancer cell proliferation GI50 (CCK-8); type: cell-based; details: Homo sapiens, A549, lung cancer, 72 hours
Procedure: as §3, §4

BxPC-3 = test: Cancer cell proliferation GI50 (CCK-8); type: cell-based; details: Homo sapiens, BxPC-3, pancreatic cancer, 72 hours
Procedure: as §3, §4

OCI-AML2 = test: Cancer cell proliferation GI50 (CCK-8); type: cell-based; details: Homo sapiens, OCI-AML2, acute myeloid leukemia, 72 hours
Procedure: as §3, §4

RCH-ACV = test: Cancer cell proliferation GI50 (CCK-8); type: cell-based; details: B cell acute lymphocytic leukemia, 72 hours
Procedure: as §3, §4

SR = test: Cancer cell proliferation GI50 (CCK-8); type: cell-based; details: Homo sapiens, immunoblastic large cell lymphoma, 72 hours
Procedure: as §3, §4

MOLT4 = test: Cancer cell proliferation GI50 (CCK-8); type: cell-based; details: Homo sapiens, MOLT-4, MOLT4, acute lymphocytic leukemia, 72 hours
Procedure: as §3, §4

HCC70 = test: Cancer cell proliferation GI50 (CCK-8); type: cell-based; details: Homo sapiens, HCC70, breast cancer, 72 hours
Procedure: as §3, §4

MEG-01 = test: Cancer cell proliferation GI50 (CCK-8); type: cell-based; details: Homo sapiens, MEG-01, chronic myeloid leukemia, 72 hours
Procedure: as §3, §4

KASUMI-2 = test: Cancer cell proliferation GI50 (CCK-8); type: cell-based; details: KASUMI-2, B cell acute lymphocytic leukemia, 72 hours
Procedure: as §3, §4

KG-1 = test: Cancer cell proliferation GI50 (CCK-8); type: cell-based; details: Homo sapiens, KG-1, acute myeloid leukemia, 72 hours
Procedure: as §3, §4

MOLM/DEC-5 = test: Cancer cell proliferation GI50 (CCK-8); type: cell-based; details: MOLM/DEC-5, acute myeloid leukemia, 72 hours
Procedure: as §3, §4

U937 = test: Cancer cell proliferation GI50 (CCK-8); type: cell-based; details: Homo sapiens, U-937, U937, acute myeloid leukemia, 72 hours
Procedure: as §3, §4

MCF-7 = test: Cancer cell proliferation GI50 (CCK-8); type: cell-based; details: Homo sapiens, MCF7, MCF-7, breast cancer, 72 hours
Procedure: as §3, §4

MOLM/AZA-1 = test: Cancer cell proliferation GI50 (CCK-8); type: cell-based; details: MOLM/AZA-1, acute myeloid leukemia, 72 hours
Procedure: as §3, §4

RPMI-8226 = test: Cancer cell proliferation GI50 (CCK-8); type: cell-based; details: Homo sapiens, RPMI-8226, multiple myeloma, 72 hours
Procedure: as §3, §4

NALM-20 = test: Cancer cell proliferation GI50 (CCK-8); type: cell-based; details: NALM-20, B cell acute lymphocytic leukemia, 72 hours
Procedure: as §3, §4

DU145 = test: Cancer cell proliferation GI50 (CCK-8); type: cell-based; details: Homo sapiens, DU-145, DU145, prostate cancer, 72 hours
Procedure: as §3, §4

Q: `CCc1cnc(NC(=O)[C@@H](C)c2cccc(-c3cnc(NC(=O)/C=C/CN(C)C)c(C#N)c3)c2)s1` [Compound 121, (S,E)-N-(3-cyano-5-(3-(1-((5-ethylthiazol-2-yl)amino)-1-oxopropan-2-yl)phenyl)pyridin-2-yl)-4-(dimethylamino)but-2-enamide] was tested. Which GI50 (MDA-MB-231) did it give?
A: The GI50 was 6 nM.

Q: What about the GI50 (Hep3B) of the same compound?
A: Its GI50 is 9 nM.

Q: What about the GI50 (MDA-MB-468) of the same compound?
A: Its GI50 is 4 nM.

Q: What about the GI50 (Huh7) of the same compound?
A: The GI50 was 7 nM.

Q: And the IC50 (MDA-MB-468 cells; Homo sapiens, MDA-MB-468, 72 h)?
A: Its IC50 is at most 14 nM.

Q: What about the IC50 (MDA-MB-468 cells; 72 hours) of the same compound?
A: The IC50 was 14 nM.

Q: And the GI50 (HepG2)?
A: The GI50 was 14 nM.

Q: What about the GI50 (BDCM) of the same compound?
A: The GI50 was 2.68 nM.

Q: What about the GI50 (LNCaP) of the same compound?
A: The GI50 was 8 nM.

Q: What about the GI50 (HCC1937) of the same compound?
A: The GI50 was 14.6 nM.

Q: What about the GI50 (THP-1) of the same compound?
A: Its GI50 is 1.95 nM.

Q: And the GI50 (CCRF-CEM)?
A: The GI50 was 15.6 nM.

Q: And the GI50 (DAUDI)?
A: Its GI50 is 9.15 nM.

Q: What about the GI50 (NB4) of the same compound?
A: Its GI50 is 12.9 nM.

Q: And the GI50 (SKM-1)?
A: Its GI50 is 25 nM.

Q: And the GI50 (A549)?
A: The GI50 was 8.6 nM.

Q: What about the GI50 (BxPC-3) of the same compound?
A: The GI50 was 6.7 nM.

Q: What about the GI50 (OCI-AML2) of the same compound?
A: The GI50 was 7.74 nM.

Q: What about the GI50 (RCH-ACV) of the same compound?
A: Its GI50 is 4.1 nM.

Q: And the GI50 (SR)?
A: The GI50 was 5.83 nM.

Q: What about the GI50 (MOLT4) of the same compound?
A: Its GI50 is 4.51 nM.

Q: What about the GI50 (HCC70) of the same compound?
A: The GI50 was 11.2 nM.

Q: What about the GI50 (MEG-01) of the same compound?
A: The GI50 was 4 nM.

Q: What about the GI50 (KASUMI-2) of the same compound?
A: The GI50 was 6.26 nM.

Q: What about the GI50 (KG-1) of the same compound?
A: Its GI50 is 29 nM.

Q: What about the GI50 (MOLM/DEC-5) of the same compound?
A: The GI50 was 14.9 nM.

Q: What about the GI50 (U937) of the same compound?
A: Its GI50 is 2.43 nM.

Q: And the GI50 (MCF-7)?
A: The GI50 was 15.1 nM.

Q: And the GI50 (MOLM/AZA-1)?
A: Its GI50 is 13.2 nM.

Q: What about the GI50 (RPMI-8226) of the same compound?
A: The GI50 was 16.4 nM.

Q: What about the GI50 (NALM-20) of the same compound?
A: The GI50 was 18.6 nM.

Q: What about the GI50 (DU145) of the same compound?
A: Its GI50 is 11.5 nM.

Reference: patent US20230095520A1, “PHARMACEUTICAL COMPOSITION FOR PREVENTING OR TREATING CANCER COMPRISING AZOLE DERIVATIVES OR PHARMACEUTICALLY ACCEPTABLE SALT THEREOF” (Yungjin Pharm. Co., Ltd., priority 2020, published 2023)
